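GI50 = concentration required for 50% inhibition of growth. TGI is the concentration that stops growth completely.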
Key:
Test in all cases: DTP human tumour cell line panel, 384-well format
SW-620 colon = system: SW-620 colon
OVCAR-3 ovarian = system: OVCAR-3 ovarian
SK-MEL-28 melanoma = system: SK-MEL-28 melanoma
SNB-19 CNS = system: SNB-19 CNS
OVCAR-8 ovarian = system: OVCAR-8 ovarian
NCI/ADR-RES ovarian = system: NCI/ADR-RES ovarian
SK-OV-3 ovarian = system: SK-OV-3 ovarian
SF-295 CNS = system: SF-295 CNS
M14 melanoma = system: M14 melanoma
DU-145 prostate = system: DU-145 prostate
HCT-116 colon = system: HCT-116 colon
U251 glioblastoma = system: U251 glioblastoma
SF-268 CNS = system: SF-268 CNS
NCI-H23 lung = system: NCI-H23 lung
UACC-257 melanoma = system: UACC-257 melanoma
LOX IMVI melanoma = system: LOX IMVI melanoma
A549 NSCLC = system: A549 NSCLC
NCI-H522 lung = system: NCI-H522 lung
MOLT-4 leukemia = system: MOLT-4 leukemia
HT29 colon = system: HT29 colon
MDA-MB-435 melanoma = system: MDA-MB-435 melanoma
COLO 205 colon = system: COLO 205 colon
SN12C renal = system: SN12C renal
SR leukemia = system: SR leukemia
HL-60(TB) leukemia = system: HL-60(TB) leukemia
786-0 renal = system: 786-0 renal
MDA-MB-468 breast = system: MDA-MB-468 breast
HS 578T breast = system: HS 578T breast
CAKI-1 renal = system: CAKI-1 renal
CCRF-CEM leukemia = system: CCRF-CEM leukemia
PC-3 prostate = system: PC-3 prostate
T-47D breast = system: T-47D breast
SF-539 CNS = system: SF-539 CNS
UO-31 renal = system: UO-31 renal
HOP-62 NSCLC = system: HOP-62 NSCLC
TK-10 renal = system: TK-10 renal
EKVX NSCLC = system: EKVX NSCLC
HCC-2998 colon = system: HCC-2998 colon
UACC-62 melanoma = system: UACC-62 melanoma
BT-549 breast = system: BT-549 breast
MDA-MB-231 breast = system: MDA-MB-231 breast
NCI-H460 NSCLC = system: NCI-H460 NSCLC
HCT-15 colon = system: HCT-15 colon
SNB-75 CNS = system: SNB-75 CNS
IGROV1 ovarian = system: IGROV1 ovarian
NCI-H322M lung = system: NCI-H322M lung
HOP-92 NSCLC = system: HOP-92 NSCLC
SK-MEL-5 melanoma = system: SK-MEL-5 melanoma
OVCAR-4 ovarian = system: OVCAR-4 ovarian
MALME-3M melanoma = system: MALME-3M melanoma
ACHN renal = system: ACHN renal
RPMI-8226 leukemia = system: RPMI-8226 leukemia
A498 renal = system: A498 renal
NCI-H226 lung = system: NCI-H226 lung
MCF7 breast = system: MCF7 breast
RXF 393 renal = system: RXF 393 renal
OVCAR-5 ovarian = system: OVCAR-5 ovarian
KM12 colon = system: KM12 colon

Question: Which results are given for `CN1CCN(c2ccc(Nc3ncc4cc5n(c4n3)C3(CCCCC3)CNC5=O)nc2)CC1`?
Answer: GI50 (SW-620 colon): 1.09 µM; TGI (SW-620 colon): 10.2 µM; GI50 (OVCAR-3 ovarian): 3.05 µM; TGI (OVCAR-3 ovarian): 7.81 µM; GI50 (SK-MEL-28 melanoma): 2.47 µM; TGI (SK-MEL-28 melanoma): 14.5 µM; GI50 (SNB-19 CNS): 3.99 µM; TGI (SNB-19 CNS): > 52.6 µM; GI50 (OVCAR-8 ovarian): 3.57 µM; TGI (OVCAR-8 ovarian): 10.5 µM; GI50 (NCI/ADR-RES ovarian): 8.49 µM; TGI (NCI/ADR-RES ovarian): 23.8 µM; GI50 (SK-OV-3 ovarian): 5.23 µM; TGI (SK-OV-3 ovarian): > 42.6 µM; GI50 (SF-295 CNS): 1.75 µM; TGI (SF-295 CNS): 7.59 µM; GI50 (M14 melanoma): 1.48 µM; TGI (M14 melanoma): 4.85 µM; GI50 (DU-145 prostate): 3.22 µM; TGI (DU-145 prostate): 9.41 µM; GI50 (HCT-116 colon): 1.41 µM; TGI (HCT-116 colon): 5.38 µM; GI50 (U251 glioblastoma): 3.14 µM; TGI (U251 glioblastoma): 15.2 µM; GI50 (SF-268 CNS): 1.81 µM; TGI (SF-268 CNS): 4.14 µM; GI50 (NCI-H23 lung): 1.81 µM; TGI (NCI-H23 lung): 3.83 µM; GI50 (UACC-257 melanoma): 5.59 µM; TGI (UACC-257 melanoma): 17.4 µM; GI50 (LOX IMVI melanoma): 0.993 µM; TGI (LOX IMVI melanoma): 3.02 µM; GI50 (A549 NSCLC): 1.65 µM; TGI (A549 NSCLC): 9.44 µM; GI50 (NCI-H522 lung): 7.65 µM; TGI (NCI-H522 lung): 18.9 µM; GI50 (MOLT-4 leukemia): 0.116 µM; TGI (MOLT-4 leukemia): 0.931 µM; GI50 (HT29 colon): 1.46 µM; TGI (HT29 colon): 12.1 µM; GI50 (MDA-MB-435 melanoma): 4.34 µM; TGI (MDA-MB-435 melanoma): 24.8 µM; GI50 (COLO 205 colon): 0.844 µM; TGI (COLO 205 colon): 5.67 µM; GI50 (SN12C renal): 1.83 µM; TGI (SN12C renal): 7.87 µM; GI50 (SR leukemia): 0.0408 µM; TGI (SR leukemia): 0.196 µM; GI50 (HL-60(TB) leukemia): 0.139 µM; TGI (HL-60(TB) leukemia): 1.77 µM; GI50 (786-0 renal): 2.34 µM; TGI (786-0 renal): > 100 µM; GI50 (MDA-MB-468 breast): 4.26 µM; TGI (MDA-MB-468 breast): 10.8 µM; GI50 (HS 578T breast): 2.09 µM; TGI (HS 578T breast): 4.09 µM; GI50 (CAKI-1 renal): 1.21 µM; TGI (CAKI-1 renal): > 40.5 µM; GI50 (CCRF-CEM leukemia): 0.399 µM; TGI (CCRF-CEM leukemia): 1.81 µM; GI50 (PC-3 prostate): 2.71 µM; TGI (PC-3 prostate): > 39 µM; GI50 (T-47D breast): 7.74 µM; TGI (T-47D breast): 23.3 µM; GI50 (SF-539 CNS): 1.75 µM; TGI (SF-539 CNS): 3.44 µM; GI50 (UO-31 renal): 1.36 µM; TGI (UO-31 renal): > 23.3 µM; GI50 (HOP-62 NSCLC): 1.99 µM; TGI (HOP-62 NSCLC): 6.75 µM; GI50 (TK-10 renal): 2.94 µM; TGI (TK-10 renal): 15.3 µM; GI50 (EKVX NSCLC): 3.11 µM; TGI (EKVX NSCLC): 11 µM; GI50 (HCC-2998 colon): 2.35 µM; TGI (HCC-2998 colon): 5.48 µM; GI50 (UACC-62 melanoma): 1.69 µM; TGI (UACC-62 melanoma): 7.78 µM; GI50 (BT-549 breast): 2 µM; TGI (BT-549 breast): 3.9 µM; GI50 (MDA-MB-231 breast): 0.796 µM; TGI (MDA-MB-231 breast): 3.23 µM; GI50 (NCI-H460 NSCLC): 1.33 µM; TGI (NCI-H460 NSCLC): 3.74 µM; GI50 (HCT-15 colon): 2.14 µM; TGI (HCT-15 colon): 9.25 µM; GI50 (SNB-75 CNS): 1.89 µM; TGI (SNB-75 CNS): 4.35 µM; GI50 (IGROV1 ovarian): 4.12 µM; TGI (IGROV1 ovarian): > 100 µM; GI50 (NCI-H322M lung): 2.17 µM; TGI (NCI-H322M lung): 7.5 µM; GI50 (HOP-92 NSCLC): 2.28 µM; TGI (HOP-92 NSCLC): > 24.2 µM; GI50 (SK-MEL-5 melanoma): 2.39 µM; TGI (SK-MEL-5 melanoma): 12.7 µM; GI50 (OVCAR-4 ovarian): 5.31 µM; TGI (OVCAR-4 ovarian): 14.6 µM; GI50 (MALME-3M melanoma): 1.45 µM; TGI (MALME-3M melanoma): 4.22 µM; GI50 (ACHN renal): 1.63 µM; TGI (ACHN renal): > 100 µM; GI50 (RPMI-8226 leukemia): 0.245 µM; TGI (RPMI-8226 leukemia): 1.5 µM; GI50 (A498 renal): 3.03 µM; TGI (A498 renal): 14.5 µM; GI50 (NCI-H226 lung): 0.362 µM; TGI (NCI-H226 lung): 4.23 µM; GI50 (MCF7 breast): 1.39 µM; TGI (MCF7 breast): 9.19 µM; GI50 (RXF 393 renal): 2.15 µM; TGI (RXF 393 renal): 4.02 µM; GI50 (OVCAR-5 ovarian): 2.04 µM; TGI (OVCAR-5 ovarian): > 100 µM; GI50 (KM12 colon): 1.34 µM; TGI (KM12 colon): 14.3 µM

— PubChem BioAssay (NCI)
